Six compounds from patent US9708318B2, “Bicyclic heterocycles as FGFR4 inhibitors” (Incyte Corporation, priority 2015, dated 2017) can be followed below.

Molecules are shown by their SMILES. Where two headings read alike, the source gives them in different places. Some results are limits rather than exact numbers.

For orientation: IC50 means the point on the concentration scale where inhibition reaches its midpoint.

In experiment [1] the target is FGFR1 (Homo sapiens (Human), UniProt P11362). The experiment in a line: FGFR Enzymatic Assay (FRET peptide phosphorylation), FGFR1.
Experiment [2] concerns the target FGFR3 enzyme (Homo sapiens (Human), UniProt P22607). Kind of experiment: FGFR Enzymatic Assay (FRET peptide phosphorylation), FGFR3. The following applies: for IC50: read-out: FGFR3 IC50; for FGFR1/FGFR3 IC50 ratio / FGFR4/FGFR3 IC50 ratio: FGFR3 selectivity. It is filed as biochemical. As to the method:
(§1) The inhibitor potency of the exemplified compounds was measured in an enzyme assay that measures peptide phosphorylation using FRET measurements to detect product formation. Inhibitors were serially diluted in DMSO and a volume of 0.5 μL was transferred to the wells of a 384-well plate.
(§2) GraphPad prism3 was used to analyze the data.

Experiment [3] addresses FGFR4 (Homo sapiens (Human), UniProt P22455). Kind of experiment: FGFR Enzymatic Assay (FRET peptide phosphorylation), FGFR4. It is filed as biochemical. Here is the method:
as §1
(§3) The enzymes were purchased from Millipore or Invitrogen.
as §2

Experiment [4] addresses FGFR2 (Homo sapiens (Human), UniProt P21802). The experiment in a line: FGFR Enzymatic Assay (FRET peptide phosphorylation), FGFR2. The class given is biochemical. Here is the method:
as §1, §3, §2

[5] abbreviates: pre-incubated for 5 to 10 minutes.
Where [6] appears, read: FGFR1 IC50 (nM), pre-incubated for 4 hours.

Chain of FGFR2 (P21802 22-821): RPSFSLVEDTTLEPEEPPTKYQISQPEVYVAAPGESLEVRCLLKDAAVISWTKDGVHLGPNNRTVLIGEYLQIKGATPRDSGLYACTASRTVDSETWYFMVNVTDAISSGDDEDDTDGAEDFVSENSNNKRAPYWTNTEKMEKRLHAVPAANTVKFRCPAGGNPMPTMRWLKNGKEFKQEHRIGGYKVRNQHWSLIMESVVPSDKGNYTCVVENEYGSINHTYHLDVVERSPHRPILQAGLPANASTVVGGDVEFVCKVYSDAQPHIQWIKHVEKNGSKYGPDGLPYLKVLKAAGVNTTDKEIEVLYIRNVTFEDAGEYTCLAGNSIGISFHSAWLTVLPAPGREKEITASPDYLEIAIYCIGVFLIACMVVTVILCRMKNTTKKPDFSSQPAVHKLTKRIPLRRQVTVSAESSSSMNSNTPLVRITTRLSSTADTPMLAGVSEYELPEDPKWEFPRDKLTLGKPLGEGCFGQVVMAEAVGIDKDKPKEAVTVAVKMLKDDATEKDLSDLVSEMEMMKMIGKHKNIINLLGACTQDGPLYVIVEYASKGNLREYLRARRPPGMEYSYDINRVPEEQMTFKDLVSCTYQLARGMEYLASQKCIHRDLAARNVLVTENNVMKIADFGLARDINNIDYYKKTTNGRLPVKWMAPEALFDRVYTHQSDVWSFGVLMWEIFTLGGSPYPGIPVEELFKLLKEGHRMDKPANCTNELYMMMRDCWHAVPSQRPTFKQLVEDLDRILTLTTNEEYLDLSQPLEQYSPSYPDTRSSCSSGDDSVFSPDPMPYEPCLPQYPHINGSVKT
Chain of FGFR3 enzyme (P22607 23-806): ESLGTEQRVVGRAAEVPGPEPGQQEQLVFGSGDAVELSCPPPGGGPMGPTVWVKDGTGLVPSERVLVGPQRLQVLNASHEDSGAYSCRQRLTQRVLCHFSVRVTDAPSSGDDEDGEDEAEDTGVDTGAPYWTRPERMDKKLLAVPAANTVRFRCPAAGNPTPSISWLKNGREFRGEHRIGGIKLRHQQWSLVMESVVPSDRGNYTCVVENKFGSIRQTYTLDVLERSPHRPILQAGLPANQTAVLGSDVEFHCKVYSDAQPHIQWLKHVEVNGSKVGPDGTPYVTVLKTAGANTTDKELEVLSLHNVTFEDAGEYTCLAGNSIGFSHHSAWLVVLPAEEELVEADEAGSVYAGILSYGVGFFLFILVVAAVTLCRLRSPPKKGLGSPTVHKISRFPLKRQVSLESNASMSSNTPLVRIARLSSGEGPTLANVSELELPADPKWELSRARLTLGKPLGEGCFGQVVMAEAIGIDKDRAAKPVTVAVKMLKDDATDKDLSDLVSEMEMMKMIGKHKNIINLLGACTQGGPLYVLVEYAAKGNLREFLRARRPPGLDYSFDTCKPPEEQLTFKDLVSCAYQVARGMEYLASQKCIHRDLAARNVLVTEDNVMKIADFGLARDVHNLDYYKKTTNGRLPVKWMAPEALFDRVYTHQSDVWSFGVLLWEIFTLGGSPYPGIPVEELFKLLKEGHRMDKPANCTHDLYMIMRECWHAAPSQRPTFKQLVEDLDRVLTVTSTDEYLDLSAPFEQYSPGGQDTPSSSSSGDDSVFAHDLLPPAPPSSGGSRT
Chain of FGFR4 (P22455 22-802): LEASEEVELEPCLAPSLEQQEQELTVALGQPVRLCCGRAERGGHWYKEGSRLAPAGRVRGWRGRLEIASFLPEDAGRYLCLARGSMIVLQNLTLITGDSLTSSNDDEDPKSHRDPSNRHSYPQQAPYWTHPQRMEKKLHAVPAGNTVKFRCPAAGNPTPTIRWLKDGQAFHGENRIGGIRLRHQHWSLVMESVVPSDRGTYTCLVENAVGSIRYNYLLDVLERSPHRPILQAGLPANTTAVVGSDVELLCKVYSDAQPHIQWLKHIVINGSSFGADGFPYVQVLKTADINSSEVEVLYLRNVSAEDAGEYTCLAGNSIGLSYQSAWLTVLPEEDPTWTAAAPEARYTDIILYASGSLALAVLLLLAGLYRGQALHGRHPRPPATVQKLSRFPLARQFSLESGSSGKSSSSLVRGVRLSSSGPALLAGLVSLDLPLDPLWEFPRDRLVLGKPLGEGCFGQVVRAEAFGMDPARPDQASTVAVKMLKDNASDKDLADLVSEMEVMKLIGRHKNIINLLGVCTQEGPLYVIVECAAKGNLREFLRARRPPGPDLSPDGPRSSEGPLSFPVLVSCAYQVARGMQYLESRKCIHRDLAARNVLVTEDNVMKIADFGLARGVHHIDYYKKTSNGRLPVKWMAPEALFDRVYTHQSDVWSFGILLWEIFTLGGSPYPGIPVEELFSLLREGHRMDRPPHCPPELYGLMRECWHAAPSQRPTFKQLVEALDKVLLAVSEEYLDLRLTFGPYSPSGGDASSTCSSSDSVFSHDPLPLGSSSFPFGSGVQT
Chain of FGFR1 (P11362 22-822): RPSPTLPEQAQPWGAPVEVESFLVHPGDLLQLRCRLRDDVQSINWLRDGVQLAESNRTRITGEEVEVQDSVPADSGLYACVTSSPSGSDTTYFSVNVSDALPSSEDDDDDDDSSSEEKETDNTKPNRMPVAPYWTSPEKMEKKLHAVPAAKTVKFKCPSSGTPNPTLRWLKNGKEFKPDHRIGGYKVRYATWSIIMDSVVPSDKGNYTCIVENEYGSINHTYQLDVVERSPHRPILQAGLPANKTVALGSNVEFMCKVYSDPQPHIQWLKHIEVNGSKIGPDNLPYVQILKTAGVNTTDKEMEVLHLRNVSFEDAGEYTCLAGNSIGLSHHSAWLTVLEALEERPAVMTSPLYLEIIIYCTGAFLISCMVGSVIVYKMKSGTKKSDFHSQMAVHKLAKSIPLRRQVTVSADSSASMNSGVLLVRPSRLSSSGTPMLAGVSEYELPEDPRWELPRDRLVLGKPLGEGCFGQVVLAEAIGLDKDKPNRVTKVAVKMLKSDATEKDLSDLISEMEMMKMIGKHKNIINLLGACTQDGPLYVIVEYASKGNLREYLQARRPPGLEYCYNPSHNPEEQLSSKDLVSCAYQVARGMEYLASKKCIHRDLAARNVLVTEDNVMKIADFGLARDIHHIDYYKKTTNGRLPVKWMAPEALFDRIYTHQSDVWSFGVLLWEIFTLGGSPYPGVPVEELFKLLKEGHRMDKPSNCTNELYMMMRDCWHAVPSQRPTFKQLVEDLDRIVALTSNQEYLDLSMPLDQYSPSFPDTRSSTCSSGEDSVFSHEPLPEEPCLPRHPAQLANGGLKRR

For `COc1cc(OC)c(F)c(N2Cc3cnc(-c4cn(C)nc4C)cc3N(Cc3ccc4c(c3)nnn4C)C2=O)c1F` [Example 118, 3-(2,6-difluoro-3,5-dimethoxyphenyl)-7-(1,3-dimethyl-1H-pyrazol-4-yl)-1-((1-methyl-1H-benzo[d][1,2,3]triazol-5-yl)methyl)-3,4-dihydropyrido[4,3-d]pyrimidin-2(1H)-one], the IC50 in experiment [1] (FGFR1 IC50 (nM), pre-incubated for 5 to 10 minutes) lay within 30 to 200 nM; in experiment [2] (setting [5]) it was 0.01 to 0.03 µM; in experiment [3] (setting [5]), 0.03 to 0.2 µM; in experiment [4] (setting [5]) it was 0.01 to 0.03 µM.
`COc1cc(OC)c(F)c(N2Cc3cnc(-c4cn(C5CCN(CC#N)C5)nc4C)cc3C3(CC3)C2=O)c1F` (stereo not shown) [Example 154, 2-(3-(4-(2′-(2,6-difluoro-3,5-dimethoxyphenyl)-3′-oxo-2′,3′-dihydro-1′H-spiro[cyclopropane-1,4′-[2,7]naphthyridine]-6′-yl)-3-methyl-1H-pyrazol-1-yl)pyrrolidin-1-yl)acetonitrile]: the IC50 in experiment [1] (setting [6]) was in the range of 30 to 200 nM; in experiment [2] (pre-incubated for 4 hours) it was 0.01 to 0.03 µM; in experiment [3] (pre-incubated for 4 hours), 0.03 to 0.2 µM; in experiment [4] (pre-incubated for 4 hours), 0.01 to 0.03 µM. The “FGFR1/FGFR3 IC50 ratio” value in experiment [2] (pre-incubated for 4 hours) is greater than 5. Further, in experiment [2] (pre-incubated for 4 hours), the “FGFR4/FGFR3 IC50 ratio” value is given as greater than 3.
Take `COc1cc(OC)c(F)c(N2Cc3cnc(-c4cnn(C5(CC#N)CN(C(C)=O)C5)c4)cc3C3(CC3)C2=O)c1F` [Example 56, 2-(1-acetyl-3-(4-(2′-(2,6-difluoro-3,5-dimethoxyphenyl)-3′-oxo-2′,3′-dihydro-1′H-spiro[cyclopropane-1,4′-[2,7]naphthyridine]-6′-yl)-1H-pyrazol-1-yl)azetidin-3-yl)acetonitrile]: the IC50 in experiment [1] (read-out: FGFR1 IC50, pre-incubated for 4 hours) is greater than 200 nM; in experiment [2] (pre-incubated for 4 hours), 0.03 to 0.2 µM; in experiment [3] (pre-incubated for 4 hours), 0.03 to 0.2 µM; in experiment [4] (pre-incubated for 4 hours), 0.03 to 0.2 µM. The “FGFR1/FGFR3 IC50 ratio” value in experiment [2] (pre-incubated for 4 hours) is reported as greater than 5. For the same compound, the “FGFR4/FGFR3 IC50 ratio” value in experiment [2] (pre-incubated for 4 hours) is on record as greater than 1.
For the compound `CNC(=O)c1ccc(CN2C(=O)N(c3c(F)c(OC)cc(OC)c3F)Cc3cnc(-c4cn(C)nc4C)cc32)cc1` [Example 62, 4-((3-(2,6-difluoro-3,5-dimethoxyphenyl)-7-(1,3-dimethyl-1H-pyrazol-4-yl)-2-oxo-3,4-dihydropyrido[4,3-d]pyrimidin-1(2H)-yl)methyl)-N-methylbenzamide], the IC50 was 30 to 200 nM in experiment [1] (setting [6]), less than 0.01 µM in experiment [2] (pre-incubated for 4 hours), 0.03 to 0.2 µM in experiment [3] (pre-incubated for 4 hours) and 0.01 to 0.03 µM in experiment [4] (pre-incubated for 4 hours). In addition, the “FGFR1/FGFR3 IC50 ratio” value in experiment [2] (pre-incubated for 4 hours) is listed as greater than 10. Besides, the “FGFR4/FGFR3 IC50 ratio” value in experiment [2] (pre-incubated for 4 hours) is greater than 5.
As to `CCN1C(=O)N(c2c(F)c(OC)cc(OC)c2F)Cc2cnc(-c3cn(CCN4CCOCC4)nc3C)cc21` [Example 49, 3-(2,6-difluoro-3,5-dimethoxyphenyl)-1-ethyl-7-(3-methyl-1-(2-morpholinoethyl)-1H-pyrazol-4-yl)-3,4-dihydropyrido[4,3-d]pyrimidin-2(1H)-one], the IC50 in experiment [1] (setting [6]) is 30 to 200 nM; in experiment [2] (pre-incubated for 4 hours) it was less than 0.01 µM; in experiment [3] (pre-incubated for 4 hours) it was 0.03 to 0.2 µM; in experiment [4] (pre-incubated for 4 hours) it was less than 0.01 µM. The “FGFR1/FGFR3 IC50 ratio” value in experiment [2] (pre-incubated for 4 hours) is greater than 5. The “FGFR4/FGFR3 IC50 ratio” value in experiment [2] (pre-incubated for 4 hours) is greater than 1.
For the compound `COc1cc(OC)c(F)c(N2Cc3cnc(-c4cn(C)nc4C)cc3N(c3ccc(-n4cccn4)cc3)C2=O)c1F` [Example 77, 1-(4-(1H-pyrazol-1-yl)phenyl)-3-(2,6-difluoro-3,5-dimethoxyphenyl)-7-(1,3-dimethyl-1H-pyrazol-4-yl)-3,4-dihydropyrido[4,3-d]pyrimidin-2(1H)-one], the IC50 is 10 to 30 nM in experiment [1] (setting [6]), less than 0.01 µM in experiment [2] (pre-incubated for 4 hours), 0.03 to 0.2 µM in experiment [3] (pre-incubated for 4 hours) and less than 0.01 µM in experiment [4] (pre-incubated for 4 hours). Moreover, the “FGFR1/FGFR3 IC50 ratio” value in experiment [2] (pre-incubated for 4 hours) is given as greater than 5. Further, the “FGFR4/FGFR3 IC50 ratio” value in experiment [2] (pre-incubated for 4 hours) was greater than 10.
